Laboratory results published in patent publication US20250382305A1 (PTC THERAPEUTICS, INC., priority 2022, published 2025).
Each block holds one compound with its values, some of them ahead of it.

Experiments:
[1] = tested on: Total ATXN3 (tATXN3) protein; test: Endogenous Total ATXN3 (tATXN3) Protein Assay (MSD immunoassay of cell lysates); assay type: cell-based; details: average IC50, total ATXN3 protein in cell lysate after 48 h with compound (Table 1)
How it was run: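 Cells in DMEM/10% FBS were plated at 10,000 per well onto 7-point, 3.16-fold compound dilutions in duplicate for 48 h at 37° C, then lysed. Total ATXN3 in lysates was measured by MSD sandwich immunoassay: mouse anti-ATXN3 capture, rabbit anti-ATXN3 detection, SULFO-TAG anti-rabbit. Average IC50 was reported in star bins.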

[2] = tested on: ATXN3 pre-mRNA; test: RT-qPCR Assay to Quantify Exon 4 Skipping in ATXN3 pre-mRNA in Cells; assay type: cell-based; details: percent exon 4 skipping in ATXN3 pre-mRNA, RT-qPCR of cell lysates; average IC50
How it was run: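 Cells plated at 10,000/well onto a 7-point, 3.16-fold DMSO dilution series (duplicates), incubated 24 h at 37 °C, then lysed. Exon 4 skipping measured by one-step RT-qPCR (48 °C RT, 40 cycles); IC50 interpolated from dose-response fit of percent skipping.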

IC50 [1]: ≤ 30 nM | IC50 [2]: ≤ 30 nM
Compound: CC#CCNc1cc(Cl)nc2c(Br)c([C@H]3CC=CC[C@@H]3N)sc12 [Compound 230, 2-((1S,6S)-6-aminocyclohex-3-en-1-yl)-3-bromo-N-(but-2-yn-1-yl)-5-chlorothieno[3,2-b]pyridin-7-amine]

IC50 [1]: ≤ 30 nM | IC50 [2]: ≤ 30 nM
Compound: Cc1c([C@@H]2OCCC[C@H]2N)sc2c(NCc3cccs3)cc(Cl)nc12 (single isomer, unassigned) [Compound 45, 2-((2R,3R)-3-aminotetrahydro-2H-pyran-2-yl)-5-chloro-3-methyl-N-(thiophen-2-ylmethyl)thieno[3,2-b]pyridin-7-amine or 2-((2S,3S)-3-aminotetrahydro-2H-pyran-2-yl)-5-chloro-3-methyl-N-(thiophen-2-ylmethyl)thieno[3,2-b]pyridin-7-amine]

IC50 [1]: > 1000 nM | IC50 [2]: > 1000 nM
Compound: N[C@@H]1CCC[C@H]1c1sc2c(NCc3ccco3)cc(Cl)nc2c1Cl [Compound 114, 2-((1R,2R)-2-aminocyclopentyl)-3,5-dichloro-N-(furan-2-ylmethyl)thieno[3,2-b]pyridin-7-amine]

IC50 [1]: ≤ 30 nM | IC50 [2]: ≤ 30 nM
Compound: Cc1c([C@H]2CC=CC[C@@H]2N)sc2c(NCc3ccco3)cc(Cl)nc12 [Compound 184, 2-((1S,6S)-6-aminocyclohex-3-en-1-yl)-5-chloro-N-(furan-2-ylmethyl)-3-methylthieno[3,2-b]pyridin-7-amine]

IC50 [1]: 30 to 300 nM | IC50 [2]: 30 to 300 nM
Compound: N[C@H]1CCCC[C@@H]1c1sc2c(NCC3=CCCC3)cc(Cl)nc2c1Br [Compound 361, 2-((1S,2S)-2-aminocyclohexyl)-3-bromo-5-chloro-N-(cyclopent-1-en-1-ylmethyl)thieno[3,2-b]pyridin-7-amine]

IC50 [1]: > 1000 nM | IC50 [2]: > 1000 nM
Compound: N[C@@H]1CCCO[C@H]1c1sc2c(NCc3cccs3)cc(Cl)nc2c1Br [Compound 49, 2-((2R,3R)-3-aminotetrahydro-2H-pyran-2-yl)-3-bromo-5-chloro-N-(thiophen-2-ylmethyl)thieno[3,2-b]pyridin-7-amine]

IC50 [1]: 30 to 300 nM | IC50 [2]: 30 to 300 nM
Compound: N[C@H]1CC=CC[C@@H]1c1c(I)c2nc(Cl)cc(NCc3ccccc3)c2n1C(F)F [Compound 352, 2-((1S,6S)-6-aminocyclohex-3-en-1-yl)-N-benzyl-5-chloro-1-(difluoromethyl)-3-iodo-1H-pyrrolo[3,2-b]pyridin-7-amine]

IC50 [1]: 30 to 300 nM | IC50 [2]: 30 to 300 nM
Compound: N[C@H]1CCCO[C@@H]1c1c(Br)c2nc(Cl)nc(NCc3cccs3)c2n1C(F)F [Compound 248, 6-((2S,3S)-3-aminotetrahydro-2H-pyran-2-yl)-7-bromo-2-chloro-5-(difluoromethyl)-N-(thiophen-2-ylmethyl)-5H-pyrrolo[3,2-d]pyrimidin-4-amine]

IC50 [1]: 30 to 300 nM | IC50 [2]: 30 to 300 nM
Compound: N[C@@H]1CC=CC[C@H]1c1sc2c(NCc3ccccc3F)cc(Cl)nc2c1Br [Compound 411, 2-((1R,6R)-6-aminocyclohex-3-en-1-yl)-3-bromo-5-chloro-N-(2-fluorobenzyl)thieno[3,2-b]pyridin-7-amine]

IC50 [1]: 30 to 300 nM | IC50 [2]: 30 to 300 nM
Compound: CC#CCNc1cc(Cl)nc2c(C)c([C@H]3CCCC[C@@H]3N)sc12 [Compound 363, 2-((1S,2S)-2-aminocyclohexyl)-N-(but-2-yn-1-yl)-5-chloro-3-methylthieno[3,2-b]pyridin-7-amine]

IC50 [1]: ≤ 30 nM | IC50 [2]: ≤ 30 nM
Compound: N[C@H]1CC=CC[C@@H]1c1sc2c(NCc3ccco3)cc(Cl)nc2c1Cl [Compound 169, 2-((1S,6S)-6-aminocyclohex-3-en-1-yl)-3,5-dichloro-N-(furan-2-ylmethyl)thieno[3,2-b]pyridin-7-amine]

IC50 [1]: 30 to 300 nM | IC50 [2]: 30 to 300 nM
Compound: N[C@@H]1CC=CC[C@H]1c1sc2c(NCc3cccs3)nc(Cl)nc2c1Br [Compound 385, 6-((1R,6R)-6-aminocyclohex-3-en-1-yl)-7-bromo-2-chloro-N-(thiophen-2-ylmethyl)thieno[3,2-d]pyrimidin-4-amine]

IC50 [1]: ≤ 30 nM | IC50 [2]: ≤ 30 nM
Compound: N[C@H]1CCC[C@@H]1c1sc2c(NCc3cccs3)cc(Cl)nc2c1Br [Compound 8, 2-((1S,2S)-2-aminocyclopentyl)-3-bromo-5-chloro-N-(thiophen-2-ylmethyl)thieno[3,2-b]pyridin-7-amine]

IC50 [1]: 300 to 1000 nM | IC50 [2]: 300 to 1000 nM
Compound: N[C@H]1CC=CC[C@@H]1c1sc2c(NCc3cccs3)cc(Cl)nc2c1C#Cc1ccncc1Cl [Compound 447, 2-((1S,6S)-6-aminocyclohex-3-en-1-yl)-5-chloro-3-((3-chloropyridin-4-yl)ethynyl)-N-(thiophen-2-ylmethyl)thieno[3,2-b]pyridin-7-amine]

IC50 [1]: 300 to 1000 nM | IC50 [2]: 300 to 1000 nM
Compound: N[C@@H]1CC=CC[C@H]1c1sc2c(NCc3cccs3)nc(Cl)nc2c1Cl.N[C@H]1CC=CC[C@@H]1c1sc2c(NCc3cccs3)nc(Cl)nc2c1Cl (mixture of isomers) [Compound 397, 6-((1R,6R)-6-aminocyclohex-3-en-1-yl)-2,7-dichloro-N-(thiophen-2-ylmethyl)thieno[3,2-d]pyrimidin-4-amine and 6-((1S,6S)-6-aminocyclohex-3-en-1-yl)-2,7-dichloro-N-(thiophen-2-ylmethyl)thieno[3,2-d]pyrimidin-4-amine]

IC50 [1]: 300 to 1000 nM | IC50 [2]: 300 to 1000 nM
Compound: N[C@@H]1COCC[C@H]1c1sc2c(NCc3cccs3)cc(Cl)nc2c1Br [Compound 140, 2-((3S,4R)-3-aminotetrahydro-2H-pyran-4-yl)-3-bromo-5-chloro-N-(thiophen-2-ylmethyl)thieno[3,2-b]pyridin-7-amine]

The next lines start with the compound.

Compound: (1R,5R,6S)-5-amino-6-(3-bromo-5-chloro-7-((thiophen-2-ylmethyl)amino)thieno[3,2-b]pyridin-2-yl)cyclohex-2-en-1-ol and (1S,5S,6R)-5-amino-6-(3-bromo-5-chloro-7-((thiophen-2-ylmethyl)amino)thieno[3,2-b]pyridin-2-yl)cyclohex-2-en-1-ol [Compound 329]
IC50 [1]: 30 to 300 nM | IC50 [2]: 30 to 300 nM

Compound: N[C@H]1CCCC[C@@H]1c1sc2c(NCc3cccs3)cc(Cl)nc2c1Br [Compound 55, 2-((1S,2S)-2-aminocyclohexyl)-3-bromo-5-chloro-N-(thiophen-2-ylmethyl)thieno[3,2-b]pyridin-7-amine]
IC50 [1]: 30 to 300 nM | IC50 [2]: 30 to 300 nM

Compound: 6-((3R,4S)-3-aminotetrahydro-2H-pyran-4-yl)-2-chloro-N-(furan-2-ylmethyl)-7-vinylthieno[3,2-d]pyrimidin-4-amine and 6-((3S,4R)-3-aminotetrahydro-2H-pyran-4-yl)-2-chloro-N-(furan-2-ylmethyl)-7-vinylthieno[3,2-d]pyrimidin-4-amine [Compound 390]
IC50 [1]: 300 to 1000 nM | IC50 [2]: 30 to 300 nM

Compound: N[C@H]1CC=CC[C@@H]1c1sc2c(NCc3cccs3)cc(Cl)nc2c1I [Compound 176, 2-((1S,6S)-6-aminocyclohex-3-en-1-yl)-5-chloro-3-iodo-N-(thiophen-2-ylmethyl)thieno[3,2-b]pyridin-7-amine]
IC50 [1]: ≤ 30 nM | IC50 [2]: ≤ 30 nM

Compound: Cc1c([C@H]2CC=C(C(N)=O)C[C@@H]2N)sc2c(NCc3cccs3)cc(Cl)nc12 [Compound 274, (4S,5S)-5-amino-4-(5-chloro-3-methyl-7-((thiophen-2-ylmethyl)amino)thieno[3,2-b]pyridin-2-yl)cyclohex-1-ene-1-carboxamide]
IC50 [1]: 30 to 300 nM | IC50 [2]: 30 to 300 nM

Compound: N[C@@H]1CCCCCC[C@H]1c1sc2c(NCc3cccs3)cc(Cl)nc2c1Br [Compound 100, 2-((1R,2R)-2-aminocyclooctyl)-3-bromo-5-chloro-N-(thiophen-2-ylmethyl)thieno[3,2-b]pyridin-7-amine]
IC50 [1]: > 1000 nM | IC50 [2]: > 1000 nM

Compound: 2-((3R,4S)-3-aminotetrahydro-2H-pyran-4-yl)-5-chloro-N-(thiophen-2-ylmethyl)-3-vinylthieno[3,2-b]pyridin-7-amine and 2-((3S,4R)-3-aminotetrahydro-2H-pyran-4-yl)-5-chloro-N-(thiophen-2-ylmethyl)-3-vinylthieno[3,2-b]pyridin-7-amine [Compound 350]
IC50 [1]: 30 to 300 nM | IC50 [2]: 30 to 300 nM

Compound: 2-((1R,6S)-6-amino-2,2-difluorocyclohexyl)-3-bromo-N-(but-2-yn-1-yl)-5-chlorothieno[3,2-b]pyridin-7-amine and 2-((1S,6R)-6-amino-2,2-difluorocyclohexyl)-3-bromo-N-(but-2-yn-1-yl)-5-chlorothieno[3,2-b]pyridin-7-amine [Compound 370]
IC50 [1]: 30 to 300 nM | IC50 [2]: 30 to 300 nM

Compound: Cc1c([C@H]2CCCCC[C@H]2N)sc2c(NCc3cccs3)cc(Cl)nc12 [Compound 84, 2-((1S,2R)-2-aminocycloheptyl)-5-chloro-3-methyl-N-(thiophen-2-ylmethyl)thieno[3,2-b]pyridin-7-amine]
IC50 [1]: > 1000 nM | IC50 [2]: > 1000 nM

Compound: [2H]C1=C([2H])C([2H])([2H])[C@H](c2sc3c(NCc4cccs4)cc(Cl)nc3c2C)[C@@H](N)C1([2H])[2H] [Compound 261, 2-((1S,6S)-6-aminocyclohex-3-en-1-yl-2,2,3,4,5,5-d6)-5-chloro-3-methyl-N-(thiophen-2-ylmethyl)thieno[3,2-b]pyridin-7-amine]
IC50 [1]: 30 to 300 nM | IC50 [2]: 30 to 300 nM

Compound: Cc1c([C@@H]2CC=CC[C@H]2N)sc2c(NCc3ccncc3)nc(Cl)nc12 [Compound 436, 6-((1R,6R)-6-aminocyclohex-3-en-1-yl)-2-chloro-7-methyl-N-(pyridin-4-ylmethyl)thieno[3,2-d]pyrimidin-4-amine]
IC50 [1]: > 1000 nM | IC50 [2]: 300 to 1000 nM

Compound: N[C@@H]1CCCC[C@H]1c1sc2c(NCc3cccs3)cc(Cl)nc2c1I [Compound 58, 2-((1R,2R)-2-aminocyclohexyl)-5-chloro-3-iodo-N-(thiophen-2-ylmethyl)thieno[3,2-b]pyridin-7-amine]
IC50 [1]: > 1000 nM | IC50 [2]: > 1000 nM
